Among the data in patent publication US12677832B2, “Oxadiazole compounds for controlling or preventing phytopathogenic fungi” (PI INDUSTRIES LTD., priority 2019, dated 2026) are inhibition of growth and pest or weed control values, retold here.

The subject of one assay is Alternaria solani. The experiment in a line: Alternaria solani (Early Blight of Tomato/Potato) radial growth on potato dextrose agar. To be noted: 168 h, radial growth after seven days compared to untreated control. Format: cell-based.
In the next assay the test system is Phakopsora pachyrhizi. Description: Phakopsora pachyrhizi Test in Soybean (preventive spray). Format: in vivo. To be noted: preventive spray on Soybean plants, inoculated one day after treatment, disease severity vs untreated control. The protocol:
Example 7: Phakopsora pachyrhizi Test in Soybean Compounds were dissolved in 2% dimethyl sulfoxide/acetone and then mixed with water containing an emulsifier to a calibrated spray volume of 50 mL. This 50 mL spray solution was poured into spray bottles for further applications. To test the preventive activity of compounds, healthy young Soybean plants, raised in the greenhouse, were sprayed with the active compound preparation at the stated application rates inside the spray cabinets using hollow cone nozzles. One day after treatment, the plants were inoculated with a spore suspension containing 2×10^5Phakopsora pachyrhizi conidia. The inoculated plants were then kept in a greenhouse chamber at 22-24° C. temperature and 80-90% relative humidity for disease expression. A visual assessment of the compound's performance was carried out by rating the disease severity (0-100% scale) on treated plants 3, 7, 10 and 15 days after application. Efficacy (% control) of the compounds was calculated by comparing the disease rating in the treatment with the one of the untreated control. The sprayed plants were also assessed for plant compatibility by recording symptoms like necrosis, chlorosis and stunting.

A further assay has as its system Pyricularia oryzae. Description: microbe, parasite or virus in culture. Particulars: 168 h, read-out: control. It counts as cell-based.
Another assay has as its system Colletotrichum capsici. Description: Colletotrichum capsici (Anthracnose) radial growth on potato dextrose agar. Format: cell-based. Particulars: Colletotrichum truncatum, 168 h, radial growth after seven days compared to untreated control.

As usually defined, the pest or weed control is the degree to which the test organism was suppressed or injured, in per cent. A higher pest or weed control goes with a strong effect. Consider `Cc1ccc(Cl)cc1OCC(=O)c1ccc(-c2noc(C(F)(F)F)n2)cc1` [Compound 17, 2-(5-chloro-2-methylphenoxy)-1-(4-(5-(trifluoromethyl)-1,2,4-oxadiazol-3-yl)phenyl)ethan-1-one], for which the inhibition of growth at 300 ppm in the assay on Alternaria solani is at least 70%. The compound further returned a pest or weed control at 500 ppm in the assay with Phakopsora pachyrhizi of at least 70%.
In the assay with Alternaria solani, `O=C(COc1ccc(F)cc1F)c1ccc(-c2noc(C(F)(F)F)n2)cc1` [Compound 18, 2-(2,4-difluorophenoxy)-1-(4-(5-(trifluoromethyl)-1,2,4-oxadiazol-3-yl)phenyl)ethan-1-one] had an inhibition of growth at 300 ppm of at least 70%. This compound also had a pest or weed control at 500 ppm in the assay on Phakopsora pachyrhizi of at least 70%.
For the compound `O=C(COc1cccnc1)c1ccc(-c2noc(C(F)(F)F)n2)cc1` [Compound 21, 2-(pyridin-3-yloxy)-1-(4-(5-(trifluoromethyl)-1,2,4-oxadiazol-3-yl)phenyl)ethan-1-one], the inhibition of growth at 300 ppm in the assay on Alternaria solani was at least 70%. Besides, the pest or weed control at 500 ppm in the assay on Phakopsora pachyrhizi was at least 70%.
Turning to `O=C(CNc1ccc(F)c(F)c1)c1ccc(-c2noc(C(F)(F)F)n2)cc1` [Compound 27, 2-((3,4-difluorophenyl)amino)-1-(4-(5-(trifluoromethyl)-1,2,4-oxadiazol-3-yl)phenyl)ethan-1-one], in the assay with Alternaria solani, the inhibition of growth at 300 ppm is at least 70%. The compound also yielded a pest or weed control at 500 ppm with Phakopsora pachyrhizi of at least 70%.
In turn, `Cc1ccccc1OCC(=O)c1ccc(-c2noc(C(F)(F)F)n2)cc1` [Compound 39, 2-(o-tolyloxy)-1-(4-(5-(trifluoromethyl)-1,2,4-oxadiazol-3-yl)phenyl)ethan-1-one] returned an inhibition of growth at 300 ppm in the assay on Alternaria solani of at least 70%.
`O=C(COc1ccc(Br)nc1)c1ccc(-c2noc(C(F)(F)F)n2)cc1` [Compound 49, 2-((6-bromopyridin-3-yl)oxy)-1-(4-(5-(trifluoromethyl)-1,2,4-oxadiazol-3-yl)phenyl)ethan-1-one] showed a pest or weed control at 500 ppm in the assay with Phakopsora pachyrhizi of at least 70%. Moreover, in the assay on Pyricularia oryzae, the inhibition of growth at 300 ppm is at least 70%.
Take `C=CCSCC(=O)c1ccc(-c2noc(C(F)(F)F)n2)cc1` [Compound 61, 2-(allylthio)-1-(4-(5-(trifluoromethyl)-1,2,4-oxadiazol-3-yl)phenyl)ethan-1-one]: the inhibition of growth at 300 ppm in the assay on Alternaria solani was at least 70%.
For the compound `Cc1ccccc1SCC(=O)c1ccc(-c2noc(C(F)(F)F)n2)cc1` [Compound 66, 2-(o-tolylthio)-1-(4-(5-(trifluoromethyl)-1,2,4-oxadiazol-3-yl)phenyl)ethan-1-one], the pest or weed control at 500 ppm with Phakopsora pachyrhizi is at least 70%. Further, in the assay with Pyricularia oryzae, the inhibition of growth at 300 ppm is at least 70%.
As for `O=C(CSc1ccncc1)c1ccc(-c2noc(C(F)(F)F)n2)cc1` [Compound 68, 2-(pyridin-4-ylthio)-1-(4-(5-(trifluoromethyl)-1,2,4-oxadiazol-3-yl)phenyl)ethan-1-one], the inhibition of growth at 300 ppm with Alternaria solani was at least 70%.
Turning to `CC(C)SCC(=O)c1ccc(-c2noc(C(F)(F)F)n2)cc1` [Compound 69, 2-(isopropylthio)-1-(4-(5-(trifluoromethyl)-1,2,4-oxadiazol-3-yl)phenyl)ethan-1-one], the inhibition of growth at 300 ppm with Alternaria solani and in the assay on Pyricularia oryzae was at least 70% each time.
As to `CC(C)(C)SCC(=O)c1ccc(-c2noc(C(F)(F)F)n2)cc1` [Compound 70, 2-(tert-butylthio)-1-(4-(5-(trifluoromethyl)-1,2,4-oxadiazol-3-yl)phenyl)ethan-1-one], in the assay with Pyricularia oryzae, the inhibition of growth at 300 ppm was at least 70%.
Still for that read-out and setting: to `O=C(CSc1ccc(C(F)(F)F)cc1)c1ccc(-c2noc(C(F)(F)F)n2)cc1` [Compound 71, 1-(4-(5-(trifluoromethyl)-1,2,4-oxadiazol-3-yl)phenyl)-2-((4-(trifluoromethyl)phenyl)thio)ethan-1-one] belongs at least 70%; to `O=C(CSc1nccs1)c1ccc(-c2noc(C(F)(F)F)n2)cc1` [Compound 73, 2-(thiazol-2-ylthio)-1-(4-(5-(trifluoromethyl)-1,2,4-oxadiazol-3-yl)phenyl)ethan-1-one], at least 70%.
In the case of `O=C(C[S+]([O-])Cc1ccccc1)c1ccc(-c2noc(C(F)(F)F)n2)cc1` (stereo not drawn) [Compound 80, 2-(benzylsulfinyl)-1-(4-(5-(trifluoromethyl)-1,2,4-oxadiazol-3-yl)phenyl)ethan-1-one], the inhibition of growth at 300 ppm with Alternaria solani and in the assay on Pyricularia oryzae was at least 70% in each case.
`Cc1cnc([S+]([O-])CC(=O)c2ccc(-c3noc(C(F)(F)F)n3)cc2)s1` (stereo not drawn) [Compound 83, 2-((5-methylthiazol-2-yl)sulfinyl)-1-(4-(5-(trifluoromethyl)-1,2,4-oxadiazol-3-yl)phenyl)ethan-1-one] returned a pest or weed control at 500 ppm in the assay with Phakopsora pachyrhizi of at least 70%. The inhibition of growth at 300 ppm in the assay with Pyricularia oryzae is at least 70%.
Regarding `CC(C)(C)[S+]([O-])CC(=O)c1ccc(-c2noc(C(F)(F)F)n2)cc1` (stereo not drawn) [Compound 91, 2-(tert-butylsulfinyl)-1-(4-(5-(trifluoromethyl)-1,2,4-oxadiazol-3-yl)phenyl)ethan-1-one], the inhibition of growth at 300 ppm in the assay with Alternaria solani and in the assay with Pyricularia oryzae was at least 70% throughout.
Turning to `CC(C)S(=O)(=O)CC(=O)c1ccc(-c2noc(C(F)(F)F)n2)cc1` [Compound 106, 2-(isopropylsulfonyl)-1-(4-(5-(trifluoromethyl)-1,2,4-oxadiazol-3-yl)phenyl)ethan-1-one], the inhibition of growth at 300 ppm in the assay on Pyricularia oryzae was at least 70%.
On to `O=C(CS(=O)(=O)c1nccs1)c1ccc(-c2noc(C(F)(F)F)n2)cc1` [Compound 107, 2-(thiazol-2-ylsulfonyl)-1-(4-(5-(trifluoromethyl)-1,2,4-oxadiazol-3-yl)phenyl)ethan-1-one], for which the inhibition of growth at 300 ppm with Colletotrichum capsici was at least 70%.
As for `Cc1cccc(S(=O)(=O)CC(=O)c2ccc(-c3noc(C(F)(F)F)n3)cc2)c1` [Compound 110, 2-(m-tolylsulfonyl)-1-(4-(5-(trifluoromethyl)-1,2,4-oxadiazol-3-yl)phenyl)ethan-1-one], the inhibition of growth at 300 ppm in the assay on Pyricularia oryzae was at least 70%.
As to `O=C(CS(=O)(=O)c1ccncc1)c1ccc(-c2noc(C(F)(F)F)n2)cc1` [Compound 112, 2-(pyridin-4-ylsulfonyl)-1-(4-(5-(trifluoromethyl)-1,2,4-oxadiazol-3-yl)phenyl)ethan-1-one], the inhibition of growth at 300 ppm in the assay with Alternaria solani and with Pyricularia oryzae was at least 70% throughout.
Consider `O=C(CSCc1ccccc1)c1ccc(-c2noc(C(F)(F)F)n2)cn1` [Compound 118, 2-(benzylthio)-1-(5-(5-(trifluoromethyl)-1,2,4-oxadiazol-3-yl)pyridin-2-yl)ethan-1-one], for which the inhibition of growth at 300 ppm in the assay on Pyricularia oryzae was at least 70%.
Regarding `O=C(CSC1CCCC1)c1ccc(-c2noc(C(F)(F)F)n2)cn1` [Compound 119, 2-(cyclopentylthio)-1-(5-(5-(trifluoromethyl)-1,2,4-oxadiazol-3-yl)pyridin-2-yl)ethan-1-one], the inhibition of growth at 300 ppm in the assay on Alternaria solani and in the assay on Pyricularia oryzae was at least 70% each time.
Take `O=C(C[S+]([O-])c1cccc(F)c1)c1ccc(-c2noc(C(F)(F)F)n2)cn1` (stereo not drawn) [Compound 128, 2-((3-fluorophenyl)sulfinyl)-1-(5-(5-(trifluoromethyl)-1,2,4-oxadiazol-3-yl)pyridin-2-yl)ethan-1-one]: the inhibition of growth at 300 ppm in the assay with Alternaria solani and in the assay on Pyricularia oryzae was at least 70% each time.
For the compound `COc1ccc([S+]([O-])CC(=O)c2ccc(-c3noc(C(F)(F)F)n3)cn2)cc1` (stereo not drawn) [Compound 129, 2-((4-methoxyphenyl)sulfinyl)-1-(5-(5-(trifluoromethyl)-1,2,4-oxadiazol-3-yl)pyridin-2-yl)ethan-1-one], the inhibition of growth at 300 ppm in the assay with Colletotrichum capsici is at least 70%.
Take `O=C(C[S+]([O-])c1c(Cl)cccc1Cl)c1ccc(-c2noc(C(F)(F)F)n2)cn1` (stereo not drawn) [Compound 132, 2-((2,6-dichlorophenyl)sulfinyl)-1-(5-(5-(trifluoromethyl)-1,2,4-oxadiazol-3-yl)pyridin-2-yl)ethan-1-one]: the inhibition of growth at 300 ppm in the assay on Alternaria solani was at least 70%.
In the case of `O=C(C[S+]([O-])C1CCCC1)c1ccc(-c2noc(C(F)(F)F)n2)cn1` (stereo not drawn) [Compound 133, 2-(cyclopentylsulfinyl)-1-(5-(5-(trifluoromethyl)-1,2,4-oxadiazol-3-yl)pyridin-2-yl)ethan-1-one], the inhibition of growth at 300 ppm in the assay on Alternaria solani and with Pyricularia oryzae was at least 70% in each case.
For the compound `O=C(CNc1cccc(C(F)(F)F)c1)c1ccc(-c2noc(C(F)(F)F)n2)cc1` [Compound 141, 1-(4-(5-(trifluoromethyl)-1,2,4-oxadiazol-3-yl)phenyl)-2-((3-(trifluoromethyl)phenyl)amino)ethan-1-one], the inhibition of growth at 300 ppm in the assay on Colletotrichum capsici is at least 70%.
On the same count and under the same terms, as for `Cc1cccc(NCC(=O)c2ccc(-c3noc(C(F)(F)F)n3)cc2)c1` [Compound 144, 2-(m-tolylamino)-1-(4-(5-(trifluoromethyl)-1,2,4-oxadiazol-3-yl)phenyl)ethan-1-one], the figure is at least 70%.
With `Nc1cc[n+](CC(=O)c2ccc(-c3noc(C(F)(F)F)n3)cc2)cc1` [Compound 148, 4-amino-1-(2-oxo-2-(4-(5-(trifluoromethyl)-1,2,4-oxadiazol-3-yl)phenyl)ethyl)pyridin-1-ium bromide], the inhibition of growth at 300 ppm with Pyricularia oryzae is at least 70%.
For `Cc1nnc(SCC(=O)c2ccc(-c3noc(C(F)(F)F)n3)cc2)o1` [Compound 150, 2-((5-methyl-1,3,4-oxadiazol-2-yl)thio)-1-(4-(5-(trifluoromethyl)-1,2,4-oxadiazol-3-yl)phenyl)ethan-1-one], the inhibition of growth at 300 ppm in the assay on Alternaria solani and in the assay with Pyricularia oryzae was at least 70% in each case.
